Experimental data reported in PubChem BioAssay AID1259407 (Chemical Carcinogenesis Research Information System (CCRIS), 2018).
Active and inactive are the calls of the source. The rule behind the calls is not given here.

Tested on: CCRIS mutagenicity, Ames/micronucleus/aberration tests
Test: CCRIS mutagenicity studies
[1] = Test System: AMES SALMONELLA TYPHIMURIUM, Strain/Indicator: TA100, Metabolic Activation: NONE, Method: PREINCUBATION
[2] = Test System: AMES SALMONELLA TYPHIMURIUM, Strain/Indicator: TA100, Metabolic Activation: NONE, Method: STANDARD PLATE
[3] = Test System: AMES SALMONELLA TYPHIMURIUM, Strain/Indicator: TA1535, Metabolic Activation: NONE, Method: PREINCUBATION

## O=Nc1ccc(NO)cc1
End Point: IN VITRO CHROMOSOMAL ABERRATIONS, Test System: CHL CELLS, Metabolic Activation: NONE
  mutagenic call: active; positive (structural changes)
End Point: IN VITRO CHROMOSOMAL ABERRATIONS, Test System: CHL CELLS, Metabolic Activation: RAT, LIVER, S-9, SODIUM PHENOBARBITAL AND 5,6-BENZOFLAVONE
  mutagenic call: active; positive (structural changes)
Test System: AMES SALMONELLA TYPHIMURIUM, Strain/Indicator: TA98, Metabolic Activation: NONE, Method: STANDARD PLATE
  mutagenic call: active; positive
Test System: AMES SALMONELLA TYPHIMURIUM, Strain/Indicator: TA98, Metabolic Activation: S-9, PHENOBARBITONE AND BETA-NAPHTHOFLAVONE, Method: STANDARD PLATE
  mutagenic call: active; positive
Test System: E. COLI, Strain/Indicator: WP2 UVRA, Metabolic Activation: HAMSTER, LIVER, S-9, AROCLOR 1254, Method: STANDARD PLATE
  mutagenic call: inactive; negative
Test System: E. COLI, Strain/Indicator: WP2 UVRA, Metabolic Activation: HAMSTER, LIVER, S-9, Method: STANDARD PLATE
  mutagenic call: inactive; negative
Test System: E. COLI, Strain/Indicator: WP2 UVRA, Metabolic Activation: MOUSE, LIVER, S-9, AROCLOR 1254, Method: STANDARD PLATE
  mutagenic call: inactive; negative
Test System: E. COLI, Strain/Indicator: WP2 UVRA, Metabolic Activation: MOUSE, LIVER, S-9, Method: STANDARD PLATE
  mutagenic call: inactive; negative
Test System: E. COLI, Strain/Indicator: WP2 UVRA, Metabolic Activation: NONE, Method: STANDARD PLATE
  mutagenic call: inactive; negative
Test System: E. COLI, Strain/Indicator: WP2 UVRA, Metabolic Activation: RAT, LIVER, S-9, AROCLOR 1254, Method: STANDARD PLATE
  mutagenic call: inactive; negative
Test System: E. COLI, Strain/Indicator: WP2 UVRA, Metabolic Activation: RAT, LIVER, S-9, Method: STANDARD PLATE
  mutagenic call: inactive; negative
Test System: MOUSE LYMPHOMA, Strain/Indicator: L5178Y (HPRT), Metabolic Activation: NONE, Method: SUSPENSION/PLATE
  mutagenic call: inactive; negative
Test System: MOUSE LYMPHOMA, Strain/Indicator: L5178Y (TK+/TK-), Metabolic Activation: NONE, Method: SUSPENSION/PLATE
  mutagenic call: active; positive
Test System: UDS RODENT HEPATOCYTES, Strain/Indicator: THY INCORP, Metabolic Activation: NONE, Method: IN VIVO
  mutagenic call: inactive; negative

## ClC1(Cl)[C@H](c2ccccc2)[C@@H]1c1ccccc1
Test System: CHINESE HAMSTER V-79, Strain/Indicator: V-79 (HPRT)/6-THIOGUANINE, Metabolic Activation: NONE
  mutagenic call: inactive; negative

## c1ccc(-c2ccc(CC3CO3)cc2)cc1 (centres undefined)
[1]
  mutagenic call: active; positive
[2]
  mutagenic call: active; positive
[3]
  mutagenic call: active; positive
Test System: AMES SALMONELLA TYPHIMURIUM, Strain/Indicator: TA1535, Metabolic Activation: NONE, Method: STANDARD PLATE
  mutagenic call: active; positive

## Cn1cnc([N+](=O)[O-])c1-c1ccccc1
[2]
  mutagenic call: inactive; negative

## CC(C)(C)c1ccc(OCC2CO2)cc1 (centres undefined)
Test System: AMES SALMONELLA TYPHIMURIUM, Strain/Indicator: TA98, Metabolic Activation: HAMSTER, LIVER, S-9, AROCLOR 1254 (30%), Method: PREINCUBATION
  mutagenic call: inactive; negative
Test System: AMES SALMONELLA TYPHIMURIUM, Strain/Indicator: TA98, Metabolic Activation: NONE, Method: PREINCUBATION
  mutagenic call: inactive; negative
Test System: AMES SALMONELLA TYPHIMURIUM, Strain/Indicator: TA98, Metabolic Activation: RAT, LIVER, S-9, AROCLOR 1254 (30%), Method: PREINCUBATION
  mutagenic call: inactive; negative
Test System: AMES SALMONELLA TYPHIMURIUM, Strain/Indicator: TA100, Metabolic Activation: HAMSTER, LIVER, S-9, AROCLOR 1254 (30%), Method: PREINCUBATION
  mutagenic call: inactive; negative
[1]
  mutagenic call: active; positive
Test System: AMES SALMONELLA TYPHIMURIUM, Strain/Indicator: TA100, Metabolic Activation: RAT, LIVER, S-9, AROCLOR 1254 (30%), Method: PREINCUBATION
  mutagenic call: inactive; negative
Test System: AMES SALMONELLA TYPHIMURIUM, Strain/Indicator: TA1535, Metabolic Activation: HAMSTER, LIVER, S-9, AROCLOR 1254 (30%), Method: PREINCUBATION
  mutagenic call: inactive; negative
[3]
  mutagenic call: inactive; negative
Test System: AMES SALMONELLA TYPHIMURIUM, Strain/Indicator: TA1535, Metabolic Activation: RAT, LIVER, S-9, AROCLOR 1254 (30%), Method: PREINCUBATION
  mutagenic call: inactive; negative
Test System: AMES SALMONELLA TYPHIMURIUM, Strain/Indicator: TA1537, Metabolic Activation: HAMSTER, LIVER, S-9, AROCLOR 1254 (30%), Method: PREINCUBATION
  mutagenic call: inactive; negative
Test System: AMES SALMONELLA TYPHIMURIUM, Strain/Indicator: TA1537, Metabolic Activation: NONE, Method: PREINCUBATION
  mutagenic call: inactive; negative
Test System: AMES SALMONELLA TYPHIMURIUM, Strain/Indicator: TA1537, Metabolic Activation: RAT, LIVER, S-9, AROCLOR 1254 (30%), Method: PREINCUBATION
  mutagenic call: inactive; negative

## CC(=O)ON(OCc1ccc(Oc2ccccc2)cc1)C(=O)c1ccccc1
[2]
  mutagenic call: active; positive
Test System: AMES SALMONELLA TYPHIMURIUM, Strain/Indicator: TA100, Metabolic Activation: RAT, S-9, AROCLOR, Method: STANDARD PLATE
  mutagenic call: active; positive
